Results as given in patent US10688196B2, “Cross-linking agents of collagen fibers for the use in the treatment of corneal ectasia” (SOOFT ITALIA SPA, priority 2015, dated 2020).

Legend:
[1] = compared with solubility in water; cited from earlier work
bovine cornea = details: compared to riboflavin in deionized water; cited from earlier work
[2] = riboflavin solutions, 40 W fluorescent light, 1350 foot-candles; cited from earlier work
[3] = Riboflavin titer determination before and after sterilization (stability); type: physicochemical; details: 1 atm, 121° C.
Source text: Riboflavin Titer Determination

[4] = ROS (superoxide anion) production on 366 nm irradiation, measured by reduction of Nitro Blue Tetrazolium to Formazan Blue (absorbance at 560 nm); details: at different light intensities
Protocol: The rational of the method is based on the fact that some organic molecules, both natural and synthetic, when irradiated with a particular wavelength, activate and, by interacting with oxygen, produce superoxide anion. […] As the amount of produced superoxide anion correlates with the amount of reduced NBT, from the absorption rate of reduced NBT is obtained the amount of ROS, thereby the ROS production can be expressed as function of irradiation time (minutes).
The ROS measurement is performed by a photoactivation chamber which enables to irradiate in controlled conditions the solutions of photoactivator and detector. The controlled parameters are emission specificity, uniform radiance, irradiation intensity, irradiation time.
Riboflavin-5′-(dihydrogen phosphate), monosodium salt, control sample, NBT control sample and reference sample were irradiated at different incident light intensity (99 μW/cm^2, 223 μW/cm^2, 633 μW/cm^2) (366 nm wavelength) in the photoactivation chamber, and absorbance at 560 nm is recorded. During the irradiation the temperature of the solutions was measured. […] Therefore reasonably the effect of temperature is marginal on these absorbance measures.
The two samples were irradiated in the photoactivation chamber by 99 μW/cm^2 incident light, and absorbance at 560 nm was recorded according to the above described procedure. […]

cornea = details: UVA irradiation at 370 nm, immediately after irradiation; cited from earlier work

Row | Compound | effect on riboflavin aqueous solubility [1] | effect on riboflavin permeability (bovine cornea) (bovine cornea) | stabilizing effect on riboflavin (photodegradation) [2] [%] | also measured
1 | OC[C@H]1O[C@@H]2O[C@H]3[C@H](O)[C@@H](O)[C@@H](O[C@H]4[C@H](O)[C@@H](O)[C@@H](O[C@H]5[C@H](O)[C@@H](O)[C@@H](O[C@H]6[C@H](O)[C@@H](O)[C@@H](O[C@H]7[C@H](O)[C@@H](O)[C@@H](O[C@H]8[C@H](O)[C@@H](O)[C@@H](O[C@H]9[C@H](O)[C@@H](O)[C@@H](O[C@H]1[C@H](O)[C@H]2O)O[C@@H]9CO)O[C@@H]8CO)O[C@@H]7CO)O[C@@H]6CO)O[C@@H]5CO)O[C@@H]4CO)O[C@@H]3CO [γ-cyclodextrin] | failed to enhance drug solubility at any significant level | no significant improvement in drug permeation |  | 
2 | OC[C@H]1O[C@@H]2O[C@H]3[C@H](O)[C@@H](O)[C@@H](O[C@H]4[C@H](O)[C@@H](O)[C@@H](O[C@H]5[C@H](O)[C@@H](O)[C@@H](O[C@H]6[C@H](O)[C@@H](O)[C@@H](O[C@H]7[C@H](O)[C@@H](O)[C@@H](O[C@H]1[C@H](O)[C@H]2O)O[C@@H]7CO)O[C@@H]6CO)O[C@@H]5CO)O[C@@H]4CO)O[C@@H]3CO [α-cyclodextrin] | increased riboflavin solubility | no significant improvement in drug permeation |  | 
3 | N[C@@H](CCC(=O)N[C@@H](CS)C(=O)NCC(=O)O)C(=O)O [reduced glutathione] |  |  | 26.2 | 
4 | O=S([O-])([O-])=S.[Na+].[Na+] [sodium thiosulfate] |  |  | 72.9 | 
5 | 2-Hydroxypropyl-β-cyclodextrin | failed to enhance drug solubility at any significant level | no significant improvement in drug permeation |  | 
6 | Cc1cc2nc3c(=O)[nH]c(=O)nc-3n(C[C@H](O)[C@H](O)[C@H](O)COP(=O)([O-])O)c2cc1C.[Na+] [Riboflavin phosphate, Riboflavin-5-Phosphate Sodium] |  |  |  | Riboflavin % by weight ([3]; in presence of EDTA H4 (0.1% p/p), Tris (0.05% p/p) and phosphate buffer, sterilization 20 min): 67.0 % by weight; Riboflavin % by weight ([3]; in presence of EDTA H4 (0.1% p/p), Tris (0.05% p/p) and phosphate buffer, sterilization 30 min): 60.0 % by weight; Riboflavin % by weight ([3]; in presence of EDTA H4 (0.1% p/p), Tris (0.05% p/p) and phosphate buffer, sterilization 45 min): 50.0 % by weight; Riboflavin % by weight ([3]; in presence of borate buffer, sterilization 20 min): 68.0 % by weight; Riboflavin % by weight ([3]; in presence of distilled water, sterilization 20 min): 95.0 % by weight; Riboflavin % by weight ([3]; in presence of distilled water, sterilization 30 min): 92.0 % by weight; Riboflavin % by weight ([3]; in presence of distilled water, sterilization 45 min): 90.0 % by weight; Riboflavin % by weight ([3]; in presence of phosphate buffer, sterilization 20 min): 65.0 % by weight; Riboflavin % by weight ([3]; in presence of phosphate buffer, sterilization 30 min): 40.0 % by weight; Riboflavin % by weight ([3]; in presence of phosphate buffer, sterilization 45 min): 39.0 % by weight; change of the absorption on irradiation [4]: no appreciable change of the absorption; increase of the biomechanical rigidity of the cornea (cornea): about 300%
7 | NC(N)=S [thiourea] |  |  | 88.2 | 
8 | OC[C@H]1O[C@@H]2O[C@H]3[C@H](O)[C@@H](O)[C@@H](O[C@H]4[C@H](O)[C@@H](O)[C@@H](O[C@H]5[C@H](O)[C@@H](O)[C@@H](O[C@H]6[C@H](O)[C@@H](O)[C@@H](O[C@H]7[C@H](O)[C@@H](O)[C@@H](O[C@H]8[C@H](O)[C@@H](O)[C@@H](O[C@H]1[C@H](O)[C@H]2O)O[C@@H]8CO)O[C@@H]7CO)O[C@@H]6CO)O[C@@H]5CO)O[C@@H]4CO)O[C@@H]3CO [β-cyclodextrin] | increased riboflavin solubility | enhances riboflavin permeability |  | 
9 | COC(=O)c1ccc(O)cc1 [methylparaben] |  |  | 86.4 | 
10 | O=C([O-])CN(CCN(CC(=O)[O-])CC(=O)O)CC(=O)O.[Na+].[Na+] [disodium ethylenediamine (EDTA)] |  |  | 96.2 | 
11 | ribonucleic acid |  |  | 59.3 | 
12 | CSCCC(N)C(=O)O (racemic) [DL-methionine] |  |  | 76.3 | 
